Laboratory results taken from patent US20160122320A1, “USEFUL COMBINATIONS OF MONOBACTAM ANTIBIOTICS WITH BETA-LACTAMASE INHIBITORS” (Basilea Pharmaceutica AG, priority 2005, published 2016).

Legend:
Assay in all cases: MIC, NCCLS broth microdilution
Format in all cases: cell-based
[1] = tested on: Klebsiella pneumoniae CF104
[2] = tested on: Enterobacter aerogenes B1
[3] = tested on: Stenotrophomonas malthophilia 1AC736; details: Stenotrophomonas maltophilia 1AC736
[4] = tested on: Enterobacter aerogenes Zayakosky; details: Enterobacter aerogenes Zayakosky; + compound 323 and sulbactam, 4 mg/L each
[5] = tested on: Pseudomonas aeruginosa 1973E
How it was run: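 NCCLS M7-A5 microdilution; DMSO ≤1% final; overnight, 30° C. or 37° C.; visual read. MIC = lowest conc. with no visible growth. Combos: formula I titrated, partners fixed at 4 μg/mL each.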

[6] = tested on: Serratia marcescens S6
[7] = tested on: Acinetobacter sp. J2; details: Acinetobacter baumannii J2
[8] = tested on: Pseudomonas aeruginosa MK1184; details: with 102 and sulbactam

Which “MIC of antibiotic at fixed inhibitor concentration of 4 mg/L” value ([1]; with 102 and clavulanate) does the source give for C[C@H]1[C@H](NC(=O)/C(=N\OC(C)(C)C(=O)O)c2csc(N)n2)C(=O)N1S(=O)(=O)O [Aztreonam, aztreonam, reference compound] here?
Its value is 0.5 µg/mL.

What about the “MIC of antibiotic at fixed inhibitor concentration of 4 mg/L” value ([1]; with 102 and sulbactam) of the same molecule?
The value was 1 µg/mL.

What about the “Minimal Inhibitory Concentration of antibiotic at fixed inhibitor concentration of 4 mg/L” value (from here on “Minimal Inhibitory Concentration”) ([2]; + compound 206 4 mg/L) of the same molecule?
The value was 8 mg/L.

What about the “Minimal Inhibitory Concentration” value ([2]; + compound 323 and sulbactam, 4 mg/L each) of the same molecule?
The value was 8 mg/L.

And the “MIC of antibiotic at fixed inhibitor concentration of 4 mg/L” value ([3]; with 102 and clavulanate)?
Its value is 4 µg/mL.

And the “MIC of antibiotic at fixed inhibitor concentration of 4 mg/L” value ([3]; with 102 and sulbactam)?
The value was 8 µg/mL.

What about the “Minimal Inhibitory Concentration” value [4] of the same molecule?
The value was 8 mg/L.

And the MIC of antibiotic ([5]; antibiotic alone, no inhibitor)?
Its MIC of antibiotic is 8 µg/mL.

And the “MIC of antibiotic at fixed inhibitor concentration of 4 mg/L” value ([5]; with 102 and clavulanate)?
Its value is 8 µg/mL.

What about the “MIC of antibiotic at fixed inhibitor concentration of 4 mg/L” value ([5]; with 102 and sulbactam) of the same molecule?
The value was 4 µg/mL.

What about the “MIC of antibiotic at fixed inhibitor concentration of 4 mg/L” value ([6]; with 102 and clavulanate) of the same molecule?
Its value is 2 µg/mL.

What about the “MIC of antibiotic at fixed inhibitor concentration of 4 mg/L” value ([6]; with 102 and sulbactam) of the same molecule?
Its value is 2 µg/mL.

What about the “MIC of antibiotic at fixed inhibitor concentration of 4 mg/L” value ([7]; with 102 and clavulanate) of the same molecule?
The value was 16 µg/mL.

And the “MIC of antibiotic at fixed inhibitor concentration of 4 mg/L” value ([7]; with 102 and sulbactam)?
Its value is 4 µg/mL.

And the “MIC of antibiotic at fixed inhibitor concentration of 4 mg/L” value [8]?
Its value is 16 µg/mL.
